Experimental data as given in patent US8822172B2, “Method of detecting isolevuglandin phospholipid adducts” (Case Western Reserve University, priority 2009, dated 2014).
Read-outs that look alike come from different tables or passages of the source.

Experiments:
[1] = Ca2^+; cited from earlier work
[2] = Cu^2+; cited from earlier work
[3] = Fe^3+; cited from earlier work
mouse liver [4] = conditions: short-term model of ethanol exposure, 2, 4 or 6% for 2 days
Description: (§1) All procedures using animals were approved by the Cleveland Clinic Foundation Institutional Animal Care and Use Committees. Mice were housed in shoe-box cages (2 animals/cage) with microisolator lids. Standard microisolator handling procedures were used throughout the study. Mice were randomized into ethanol-fed and pair-fed groups and then adapted to control liquid diet for 2 days. The ethanol-fed group was allowed free access to ethanol containing diet with increasing concentrations of ethanol: 1% (vol/vol) and 2% each for 2 days, then 4% ethanol for 7 d, and finally 5% ethanol for a further 4 weeks. For the dose-response experiment, mice were allowed free access to 1% ethanol for 2 days and then 2%, 4% or 6% ethanol for a further 2 days. Control mice were pair-fed diets which iso-calorically substituted maltose dextrins for ethanol over the entire feeding period. Mice were then anesthetized, blood samples taken into non-heparinized syringes from the posterior vena cava, livers blanched with saline via the portal vein and then excised. Portions of each liver were then either fixed in formalin or frozen in optimal cutting temperature (OCT) compound (Sakura Finetek U.S.A., Inc., Torrance Calif.) for histology, frozen in RNAlater (Qiagen, Valencia, Calif.) or flash frozen in liquid nitrogen and stored at −80° C. until further analysis. […]

TNF-α = conditions: long-term ethanol feeding; early peak at 2% d2, later peak at 5% wk 4
Description: as §1

hepatic triglycerides = conditions: short-term model, 2, 4 or 6% ethanol diet for 2 days
Description: (§2) All procedures using animals were approved by the Cleveland Clinic Foundation Institutional Animal Care and Use Committees. Mice were housed in shoe-box cages (2 animals/cage) with microisolator lids. Standard microisolator handling procedures were used throughout the study. […] Mice were then anesthetized, blood samples taken into non-heparinized syringes from the posterior vena cava, livers blanched with saline via the portal vein and then excised. Portions of each liver were then either fixed in formalin or frozen in optimal cutting temperature (OCT) compound (Sakura Finetek U.S.A., Inc., Torrance Calif.) for histology, frozen in RNAlater (Qiagen, Valencia, Calif.) or flash frozen in liquid nitrogen and stored at −80° C. until further analysis. Blood was transferred to heparin-containing tubes for the isolation of plasma. Plasma was then stored at −80° C.
Formalin-fixed tissues were paraffin embedded, sectioned and stained with hematoxylin and eosin. Sections were coded prior to analysis and examined by two independent individuals. For Oil Red O staining, 10 micron sections were cut from frozen OCT samples and affixed to a microscope slide. Slides were then stored at 4° C. until staining. […] Total liver triglycerides were measured using the Triglyceride Reagent Kit from Pointe Scientific Inc. (Lincoln Park, Mich.).

mouse liver [5] = conditions: chronic ethanol-fed vs pair-fed mice, P=0.00021
Description: The tissue was homogenized manually using a Teflon-coated stainless steel pestle. After homogenization, the resulting mixture was placed in a 4° C. freezer for 30 min to maximize the lipid extraction efficiency. An aqueous solution of sodium chloride (1.5%, w/w, 1/4 the volume of the organic extract) was added. The resulting mixture was centrifuged at 3000 rpm for 15 min. The lower layer containing the lipids was carefully withdrawn with a polyethylene transfer pipette, making sure to avoid the interface or upper layer. The solvents were then evaporated under a stream of dry argon at room temperature, and the sample was stored under argon at −80° C. before being analyzed using LC-MS/MS.
The resulting mixture was sonicated for 5 min followed by the addition of PLA2 enzyme (50 μl of 10,000 units/ml). […]
Direct infusion MS and LC-MS/MS were performed on a Quattro Ultima triple-quadrupole mass spectrometer (Micromass, Wythenshawe, UK). […] The total ion current was measured in the mass-to-charge ratio (m/z) range of 50-900 at 30 V of cone energy in the negative ion mode with a 3.5-kV electrospray capillary voltage, 60-V cone voltage, 120° C. source temperature, 250° C. desolvation temperature, 65 L/h cone gas flow, and 658 L/h desolvation gas flow. […] All retention times of analytes shown in MRM spectra were recorded relative to the internal standard (iso[4]LGE2-D31-lysoPE-HL, 11.83 min). […]

CYP2E1 = conditions: chronic ethanol feeding, maximum at 5% wk 2
Description: All procedures using animals were approved by the Cleveland Clinic Foundation Institutional Animal Care and Use Committees. Mice were housed in shoe-box cages (2 animals/cage) with microisolator lids. Standard microisolator handling procedures were used throughout the study. […] Mice were then anesthetized, blood samples taken into non-heparinized syringes from the posterior vena cava, livers blanched with saline via the portal vein and then excised. Portions of each liver were then either fixed in formalin or frozen in optimal cutting temperature (OCT) compound (Sakura Finetek U.S.A., Inc., Torrance Calif.) for histology, frozen in RNAlater (Qiagen, Valencia, Calif.) or flash frozen in liquid nitrogen and stored at −80° C. until further analysis. […]
0.5-1.0 g of frozen liver tissue was homogenized in 10 ml/g tissue in lysis buffer (50 mM Tris-HCl, pH7.4, 1% NP-40, 0.25% Na-deoxycholate, 150 mM NaCl, 1 mM EDTA with added protease inhibitors Complete™ (Roche Diagnostics, Mannheim, Germany), 17.5 μg/ml aprotinin, 5 μg/ml bestatin, 10 μg/ml leupeptin, 1 mg/ml bacitracin, and 20 μg/ml E64) and phosphatase inhibitors (1 mM vanadate and 10 mM Na pyrophosphate)) using 15 strokes in a glass on glass homogenizer (loose pestle). […] Protein concentrations were measured. […] Bound antibody was detected by chemiluminescence. Immunoreactive protein quantity was assessed by scanning densitometry.

mouse liver [6] = conditions: chronic ethanol-fed mouse liver (5% wk 4), ELISA and LC/MS
Description: Mice were housed in shoe-box cages (2 animals/cage) with microisolator lids. Standard microisolator handling procedures were used throughout the study. […] Mice were then anesthetized, blood samples taken into non-heparinized syringes from the posterior vena cava, livers blanched with saline via the portal vein and then excised. Portions of each liver were then either fixed in formalin or frozen in optimal cutting temperature (OCT) compound (Sakura Finetek U.S.A., Inc., Torrance Calif.) for histology, frozen in RNAlater (Qiagen, Valencia, Calif.) or flash frozen in liquid nitrogen and stored at −80° C. until further analysis. Blood was transferred to heparin-containing tubes for the isolation of plasma. Plasma was then stored at −80° C.
Liver homogenates were prepared as described except that 50 μM butylated hydroxytoluene (BHT) and 100 μM diethylenetriamine pentaacetic acid (DTPA) were added to the buffer to prevent aerial oxidation of lipids during homogenization. 50 μg of protein was used in the ELISA.

plasma ALT = conditions: short-term model, 2, 4 or 6% ethanol diet for 2 days
Description: as §2
Plasma samples were assayed for alanine aminotransferase (ALT) using a commercially available enzymatic assay kit (Diagnostic Chemicals, LTD, Oxford, Conn.) following the manufacturer's instructions.

Compound	stability constant log K of EDTA complex [1]	stability constant log K of EDTA complex [2]	stability constant log K of EDTA complex [3]	4-HNE, LGE2 and iso[4]LGE2-protein adducts in liver (mouse liver [4])	TNF-α in mouse liver (TNF-α)	hepatic triglycerides (hepatic triglycerides)	isoLG-lysoPE-HL liver levels compared to pair-fed mice (mouse liver [5])	hepatic CYP2E1 expression (CYP2E1)	adducts of iso[4]LGE2 in liver compared to pair-fed animals (mouse liver [6]) [fold]	plasma ALT (plasma ALT)
O=C(O)CN(CCN(CC(=O)O)CC(=O)O)CC(=O)O [EDTA, ethylenediaminetetraacetic acid]	10.7	18.8	25.1	–	–	–	–	–	–	–
CCO [ethanol]	–	–	–	increased only at 6% ethanol feeding	biphasic induction	increased at 4 and 6%	Twofold higher	increased over time	2	increased at 4 and 6%
